In patent US20060069132A1, “Azolecarboxamide herbicides” (priority 2004, published 2006):

Key:
velvetleaf = assay: Test C pre-/postemergence herbicide test; type: in vivo, Abutilon theophrasti; settings: for Velvetleaf plant response rating: 500 g ai/ha
Outline: (§1)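 Pre- and postemergence application, solvent/surfactant formulation; post at 1- to 4-leaf stage (2–18 cm). Greenhouse 12–14 d. Visual rating vs controls, 0 = no effect, 100 = complete control.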

soybean = assay: Test C pre-/postemergence herbicide test; type: in vivo, Glycine max; settings: for Soybean plant response rating: 500 g ai/ha
Outline: as §1

large crabgrass = assay: Test C pre-/postemergence herbicide test; type: in vivo, Digitaria sanguinalis; settings: for Crabgrass, Large plant response rating: 500 g ai/ha
Outline: as §1

corn [1] = assay: Test C pre-/postemergence herbicide test; type: in vivo, Zea mays; settings: for Corn plant response rating: 500 g ai/ha
Outline: as §1

wild oat = assay: Test B postemergence herbicide test; type: in vivo, Avena fatua; settings: scale 0 (no effect) to 100 (complete control); for Plant response rating, Oat, Wild: Postemergence, 500 g ai/ha, visual rating after 13 to 15 days; for Oat, Wild plant response rating: postemergence, 125 g ai/ha, visual rating
Outline: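 After treating 2-leaf paddy plants or 2–18 cm postemergence plants (1 to 4 leaves) with formulated chemical, researchers kept them in a greenhouse for 13–15 days. Effects were judged visually versus controls: 0 indicates none, 100 total control.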

corn [2] = assay: Test B pre-/postemergence herbicide test; type: in vivo, Zea mays; settings: for Corn plant response rating: postemergence, visual rating
Outline: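 Pre: seeds sown, then sprayed. Post: 1–4-leaf plants (2–18 cm) sprayed at the same time. Paddy: flooded, treated at 2-leaf stage. Formulation: non-phytotoxic solvent with surfactant. Greenhouse 13–15 days; visual 0–100 score relative to controls.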

Surinam grass = assay: Test C pre-/postemergence herbicide test; type: in vivo, Urochloa decumbens; settings: for Surinam Grass plant response rating: 500 g ai/ha
Outline: as §1

pigweed = assay: Test C pre-/postemergence herbicide test; type: in vivo, Amaranthus retroflexus; settings: for Pigweed plant response rating: 500 g ai/ha
Outline: as §1

johnsongrass = assay: Test C pre-/postemergence herbicide test; type: in vivo, Sorghum halepense; settings: for Johnsongrass plant response rating: 500 g ai/ha
Outline: as §1

yellow nutsedge = assay: Test C pre-/postemergence herbicide test; type: in vivo, Cyperus esculentus; settings: for Nutsedge, Yellow plant response rating: 500 g ai/ha
Outline: as §1

[3] = 125 g ai/ha, scale 0 (no effect) to 100 (complete control), visual, 12 to 14 days, preemergence
[4] = Postemergence, 250 g ai/ha, scale 0 to 100, 0 no effect, 100 complete control
[5] = Preemergence, scale 0 to 100, 0 no effect, 100 complete control
[6] = postemergence, 125 g ai/ha, scale 0 to 100
[7] = postemergence, 62 g ai/ha, scale 0 to 100
[8] = 250 g ai/ha, scale 0 to 100 (0 no effect, 100 complete control), visual, 12 to 14 days, preemergence
[9] = 500 g ai/ha, visual rating 0-100, 0 no effect, 100 complete control, preemergence
[10] = Postemergence, 500 g ai/ha, visual rating after 13 to 15 days, scale 0 (no effect) to 100 (complete control)
[11] = 125 g ai/ha, scale 0 (no effect) to 100 (complete control)
[12] = preemergence, 125 g ai/ha, 0 to 100 scale, 0 is no effect, 100 is complete control

## CCn1nc(C(C)(C)C)cc1C(=O)Nc1cccc(C(C)=NO)c1 [Compound 108]
velvetleaf; [3]
  Plant response rating, Velvetleaf: 90
velvetleaf; Postemergence, scale 0 to 100
  Velvetleaf plant response rating: 90
velvetleaf; [4]
  Plant response rating, Velvetleaf: 80
velvetleaf; [5]
  Velvetleaf plant response rating: 100
velvetleaf; [6]
  Plant response rating, Velvetleaf: 60
velvetleaf; [7]
  Plant response rating, Velvetleaf: 40
soybean; [3]
  Plant response rating, Soybean: 0
soybean; Postemergence, scale 0 to 100
  Soybean plant response rating: 60
soybean; [4]
  Plant response rating, Soybean: 60
soybean; [5]
  Soybean plant response rating: 10
soybean; [6]
  Plant response rating, Soybean: 60
soybean; [7]
  Plant response rating, Soybean: 50
Large crabgrass; 62 g ai/ha, preemergence
  Plant response rating (0 = no effect, 100 = complete control), Crabgrass, Large: 100
Large crabgrass; [3]
  Plant response rating, Crabgrass, Large: 100
Large crabgrass; [8]
  Plant response rating, Crabgrass, Large: 100
Large crabgrass; Postemergence, scale 0 to 100
  Crabgrass, Large plant response rating: 100
Large crabgrass; [4]
  Plant response rating, Crabgrass, Large: 70
Large crabgrass; [5]
  Crabgrass, Large plant response rating: 100
Large crabgrass; [6]
  Plant response rating, Crabgrass, Large: 70
Large crabgrass; [7]
  Plant response rating, Crabgrass, Large: 10
Corn [1]; 62 g ai/ha, preemergence
  Plant response rating (0 = no effect, 100 = complete control), Corn: 30
Corn [1]; [3]
  Plant response rating, Corn: 40
Corn [1]; [8]
  Plant response rating, Corn: 50
Corn [1]; Postemergence, scale 0 to 100
  Corn plant response rating: 60
Corn [1]; [4]
  Plant response rating, Corn: 50
Corn [1]; [5]
  Corn plant response rating: 50
Corn [1]; [6]
  Plant response rating, Corn: 50
Corn [1]; [7]
  Plant response rating, Corn: 50
Wild oat
  Plant response rating, Oat, Wild: 50
  Oat, Wild plant response rating: 20
Corn [2]; [9]
  Plant response rating, Corn: 30
Corn [2]; [10]
  Plant response rating, Corn: 20
Corn [2]; [11]
  Corn plant response rating: 10
Corn [2]; [12]
  Plant response rating, Corn: 10
Surinam grass; 62 g ai/ha, preemergence
  Plant response rating (0 = no effect, 100 = complete control), Surinam Grass: 30
Surinam grass; [3]
  Plant response rating, Surinam Grass: 40
Surinam grass; Postemergence, scale 0 to 100
  Surinam Grass plant response rating: 50
Surinam grass; [4]
  Plant response rating, Surinam Grass: 40
Surinam grass; [5]
  Surinam Grass plant response rating: 90
Surinam grass; [6]
  Plant response rating, Surinam Grass: 40
Surinam grass; [7]
  Plant response rating, Surinam Grass: 20
pigweed; 62 g ai/ha, preemergence
  Plant response rating (0 = no effect, 100 = complete control), Pigweed: 100
pigweed; [3]
  Plant response rating, Pigweed: 100
pigweed; Postemergence, scale 0 to 100
  Pigweed plant response rating: 100
pigweed; [4]
  Plant response rating, Pigweed: 100
pigweed; [5]
  Pigweed plant response rating: 100
pigweed; [6]
  Plant response rating, Pigweed: 100
pigweed; [7]
  Plant response rating, Pigweed: 60
johnsongrass; 62 g ai/ha, preemergence
  Plant response rating (0 = no effect, 100 = complete control), Johnsongrass: 60
johnsongrass; [3]
  Plant response rating, Johnsongrass: 100
johnsongrass; Postemergence, scale 0 to 100
  Johnsongrass plant response rating: 90
johnsongrass; [4]
  Plant response rating, Johnsongrass: 70
johnsongrass; [5]
  Johnsongrass plant response rating: 100
johnsongrass; [6]
  Plant response rating, Johnsongrass: 50
johnsongrass; [7]
  Plant response rating, Johnsongrass: 20
Yellow nutsedge; 62 g ai/ha, preemergence
  Plant response rating (0 = no effect, 100 = complete control), Nutsedge, Yellow: 50
Yellow nutsedge; [3]
  Plant response rating, Nutsedge, Yellow: 70
Yellow nutsedge; Postemergence, scale 0 to 100
  Nutsedge, Yellow plant response rating: 30
Yellow nutsedge; [4]
  Plant response rating, Nutsedge, Yellow: 30
Yellow nutsedge; [5]
  Nutsedge, Yellow plant response rating: 80
Yellow nutsedge; [6]
  Plant response rating, Nutsedge, Yellow: 30
Yellow nutsedge; [7]
  Plant response rating, Nutsedge, Yellow: 20

## CC(=NO)c1cccc(NC(=O)c2cc(C(C)(C)C)nn2CC(F)(F)F)c1 [Compound 112]
velvetleaf; Postemergence, scale 0 to 100
  Velvetleaf plant response rating: 90
velvetleaf; [4]
  Plant response rating, Velvetleaf: 80
velvetleaf; [6]
  Plant response rating, Velvetleaf: 0
velvetleaf; [7]
  Plant response rating, Velvetleaf: 0
soybean; Postemergence, scale 0 to 100
  Soybean plant response rating: 60
soybean; [4]
  Plant response rating, Soybean: 50
soybean; [6]
  Plant response rating, Soybean: 0
soybean; [7]
  Plant response rating, Soybean: 0
Large crabgrass; Postemergence, scale 0 to 100
  Crabgrass, Large plant response rating: 30
Large crabgrass; [4]
  Plant response rating, Crabgrass, Large: 30
Large crabgrass; [6]
  Plant response rating, Crabgrass, Large: 10
Large crabgrass; [7]
  Plant response rating, Crabgrass, Large: 0
Corn [1]; Postemergence, scale 0 to 100
  Corn plant response rating: 30
Corn [1]; [6]
  Plant response rating, Corn: 20
Corn [1]; [7]
  Plant response rating, Corn: 10
Wild oat
  Plant response rating, Oat, Wild: 40
  Oat, Wild plant response rating: 40
Corn [2]; [9]
  Plant response rating, Corn: 0
Corn [2]; [10]
  Plant response rating, Corn: 40
Corn [2]; [11]
  Corn plant response rating: 40
Corn [2]; [12]
  Plant response rating, Corn: 0
Surinam grass; Postemergence, scale 0 to 100
  Surinam Grass plant response rating: 60
Surinam grass; [4]
  Plant response rating, Surinam Grass: 40
Surinam grass; [6]
  Plant response rating, Surinam Grass: 40
Surinam grass; [7]
  Plant response rating, Surinam Grass: 20
pigweed; Postemergence, scale 0 to 100
  Pigweed plant response rating: 100
pigweed; [4]
  Plant response rating, Pigweed: 100
pigweed; [6]
  Plant response rating, Pigweed: 60
pigweed; [7]
  Plant response rating, Pigweed: 10
johnsongrass; Postemergence, scale 0 to 100
  Johnsongrass plant response rating: 60
johnsongrass; [4]
  Plant response rating, Johnsongrass: 50
johnsongrass; [6]
  Plant response rating, Johnsongrass: 20
johnsongrass; [7]
  Plant response rating, Johnsongrass: 20
Yellow nutsedge; Postemergence, scale 0 to 100
  Nutsedge, Yellow plant response rating: 20
Yellow nutsedge; [4]
  Plant response rating, Nutsedge, Yellow: 20
Yellow nutsedge; [6]
  Plant response rating, Nutsedge, Yellow: 0
Yellow nutsedge; [7]
  Plant response rating, Nutsedge, Yellow: 0
